Laboratory results from ChEMBL document CHEMBL3301361, “Experimental in vitro DMPK and physicochemical data on a set of publicly disclosed compounds”.
In brackets after ≈: the same amount, converted by molar mass.

Assays:
physchem [1] = settings: octan-1-ol/water, pH 7.4, LogD7.4
physchem [2] = settings: pH 7.4 buffer

SMILES | logD (physchem [1]) | solubility thermodynamic (physchem [2])
C[C@@H]1CN(c2nc(N3CCOCC3)c3ccc(Nc4ccccc4)nc3n2)C[C@H](C)O1 | 4.12 | 1.4 µM (≈ 0.589 µg/mL)
CC(C)Cn1cnc(-c2ccccc2)c1-c1nc2c(N)ncnc2s1 | 3.72 | 70.8 µM (≈ 24.8 µg/mL)
O=C(NCCNC(=O)c1cn(-c2ccccc2)nc1C(F)(F)F)c1ccc(Cl)cn1 | 3.8 | 3.4 µM (≈ 1.49 µg/mL)
CCc1ccc(NC(=O)c2ccc3cc(C(=N)N)ccc3c2)cc1 | 1.1 | 8.5 µM (≈ 2.7 µg/mL)
Cn1c2ccccc2c2cc(NC(=O)CCc3ccncc3)ccc21 | 3.8 | 11 µM (≈ 3.62 µg/mL)
CS(=O)(=O)c1cccc(Nc2nccc(Nc3c(Cl)ccc4ccoc34)n2)c1 | 3.7 | 11.5 µM (≈ 4.77 µg/mL)
CCCc1c(C(=O)Nc2ccc(F)cc2C)cnn1-c1ccccc1 | 3.89 | 3.1 µM (≈ 1.05 µg/mL)
c1ccc(Nc2cc(Nc3ccccc3)[nH]n2)cc1 | 3.8 | 12.6 µM (≈ 3.15 µg/mL)
O=C(NC1CCCC1)C(c1ccncc1)N(Cc1ccco1)C(=O)c1ccc(-c2ccccc2)[nH]1 (stereo not given) | 4.36 | 3.5 µM (≈ 1.64 µg/mL)
CNC(=O)c1ccc2c(=O)cc(-c3cccnc3)[nH]c2c1 | 1.01 | 309 µM (≈ 86.3 µg/mL)
O=C(NCCCCc1ccccc1)c1ccccc1 | 3.8 | 52.5 µM (≈ 13.3 µg/mL)
N#Cc1cnn(-c2ccccc2)c1NC(=O)CN1CCOCC1 | 0.5 | 1020 µM (≈ 319 µg/mL)
CC1(C)C(=O)N(c2ccc(SC(F)(F)F)cc2)C(=O)N1Cc1ccnc(N2CCOCC2)c1 | 3.73 | 3 µM (≈ 1.44 µg/mL)
Cc1ccc(CO)cc1N(C)c1ccnc(Nc2cc(N3CCCC3)cc(N3CCOCC3)c2)n1 | 3.8 | 11.5 µM (≈ 5.46 µg/mL)
COc1cc(Nc2nccc(N(C)c3cc(CO)ccc3C)n2)cc(N2CCOCC2)c1 | 3.9 | 56.2 µM (≈ 24.5 µg/mL)
CCN(c1ccnc(Nc2cc(N3CCOCC3)cc(N3CCOCC3)c2)n1)c1cc(CO)ccc1C | 3.8 | 72.4 µM (≈ 36.5 µg/mL)
CSCCC(NC(=O)c1sccc1Cl)c1nc2ccccc2[nH]1 (stereo not given) | 3.69 | 25.7 µM (≈ 9.4 µg/mL)
O=CN(O)C1(CS(=O)(=O)N2CCN(c3ccc(F)cc3)CC2)CCOCC1 | 0.85 | 1380 µM (≈ 554 µg/mL)
COc1cc(N2CCN(C(C)=O)CC2)ccc1Nc1ncc(C(F)(F)F)c(-c2cnc3ccccn23)n1 | 3.7 | 8.9 µM (≈ 4.55 µg/mL)
O=C(Nc1ccccc1)c1ccc(OCCCN2CCCC2)cc1OCc1ccccc1F | 3.85 | 141 µM (≈ 63.4 µg/mL)
Cc1ccc(S(=O)(=O)Nc2c(C(=O)NC3CCCCC3)cnn2-c2ccccc2)cc1 | 0.8 | 490 µM (≈ 215 µg/mL)
Cc1c(Oc2ccc(S(C)(=O)=O)cc2F)ncnc1OC1CCN(C(=O)OC(C)C)CC1 | 3.7 | 3 µM (≈ 1.4 µg/mL)

SMILES | logD (physchem [1]) | solubility thermodynamic (physchem [2])
CCn1cc(NC(=O)Cc2ccc(Oc3ccnc4cc(F)ccc34)cc2OC)cn1 | 3.93 | 2 µM (≈ 0.841 µg/mL)
COc1ccc2c(Oc3ccc(CC(=O)Nc4n[nH]c(C)c4C)c(OC)c3)ccnc2c1 | 3.78 | 8.3 µM (≈ 3.59 µg/mL)
CNc1cccc(CCOc2ccc(C[C@H](NC(=O)c3ccccc3Cl)C(=O)O)cc2)n1 | -0.31 | 398 µM (≈ 181 µg/mL)
CNc1cccc(CCOc2ccc(C[C@H](NC(=O)c3c(F)cccc3Cl)C(=O)O)cc2)n1 | -0.42 | 1230 µM (≈ 581 µg/mL)
CNc1cccc(CCOc2ccc(C[C@H](NC(=O)c3c(Cl)cccc3Cl)C(=O)O)cc2)n1 | -0.15 | 1510 µM (≈ 739 µg/mL)
CNc1cccc(CCCc2ccc(C[C@H](NC(=O)c3c(Cl)cccc3Cl)C(=O)O)cc2)n1 | 0.57 | 1510 µM (≈ 736 µg/mL)
CNc1cccc(CCCc2ccc(C[C@H](NC(=O)c3c(Cl)cccc3Cl)C(=O)O)s2)n1 | 0.78 | 331 µM (≈ 163 µg/mL)
O=C(N[C@@H](Cc1ccc(OCCc2ccc3c(n2)NCCC3)cc1)C(=O)O)c1c(Cl)cccc1Cl | 0.33 | 107 µM (≈ 55.1 µg/mL)
O=C(N[C@@H](Cc1ccc(OCCNc2nc3ccccc3[nH]2)cc1)C(=O)O)c1c(Cl)cccc1Cl | 0.6 | 324 µM (≈ 166 µg/mL)
O=C(Nc1ccc(N2CCOCC2)cc1)c1nnc(NC(=O)C2(c3ccc(Cl)cc3)CCCC2)o1 | 3.72 | 8.7 µM (≈ 4.31 µg/mL)
O=C(Nc1nnc(C(=O)Nc2ccc(N3CCOCC3)cc2)o1)c1ccccc1 | 1.02 | 105 µM (≈ 41.2 µg/mL)
O=c1oc(-c2ccccc2)cc2ccccc12 | 3.84 | 11.5 µM (≈ 2.56 µg/mL)
CCn1c(-c2nonc2N)nc2c(C#CC(C)(C)O)ncc(OCC3CCCNC3)c21 (stereo not given) | 0.6 | 135 µM (≈ 57.4 µg/mL)
O=S(=O)(Cc1c(F)cccc1F)N1CCN(c2ncccc2C(F)(F)F)CC1 | 3.9 | 2 µM (≈ 0.843 µg/mL)
Cc1ncc(C(N)=O)nc1-c1ccc([C@H]2CC[C@H](C(=O)O)CC2)cc1 | 0.22 | 1230 µM (≈ 418 µg/mL)
Cc1ncc(-c2ccc([C@H]3CC[C@H](CC(=O)O)CC3)cc2)nc1C(N)=O | 1 | 372 µM (≈ 131 µg/mL)
CN1CC(n2nccc2-c2cc(Cl)ccc2Oc2cc(F)c(S(=O)(=O)Nc3ncns3)cc2F)C1 | 1 | 47.9 µM (≈ 25.8 µg/mL)
CS(=O)(=O)C1(c2cc(N3CCOCC3)nc(-c3cccc4[nH]ccc34)n2)CCNCC1 | 0.7 | 234 µM (≈ 104 µg/mL)
O=C(CO)N1CCC[C@@H]1COc1cccc2ncnc(Nc3ccc(OCc4ccccn4)c(Cl)c3)c12 | 3.71 | 2.2 µM (≈ 1.14 µg/mL)
CC(C)(C)Cn1c(CN2C(=O)CC3(CCNCC3)C2=O)cc2cnc(C#N)nc21 | 0.75 | 575 µM (≈ 227 µg/mL)
Cc1ccc(Oc2ccc(Nc3ncnc4cccc(O[C@H](C)C(=O)N(C)CCO)c34)cc2C)cn1 | 3.85 | 63.1 µM (≈ 30.8 µg/mL)
COc1cccc(-c2c[nH]c(-c3ccccc3)n2)c1 | 3.8 | 36.3 µM (≈ 9.09 µg/mL)

SMILES | logD (physchem [1]) | solubility thermodynamic (physchem [2])
Cc1ccc(-c2nn(C(C)(C)C)c3ncnc(N)c23)cc1 | 4.1 | 9.8 µM (≈ 2.76 µg/mL)
CCn1c2ccccc2c2cc(NC(=O)CCc3ccncc3)ccc21 | 3.75 | 2 µM (≈ 0.687 µg/mL)
c1ccc(-c2c[nH]c(-c3ccccc3)n2)cc1 | 3.8 | 151 µM (≈ 33.3 µg/mL)
O=c1[nH][nH]c(=O)c2c1[nH]c1cc(Cl)cc(Cl)c12 | 1.02 | 57.5 µM (≈ 15.5 µg/mL)
Cc1c(CCC(=O)O)c[nH]c1/C=C1\C(=O)Nc2ccccc21 | 1.05 | 209 µM (≈ 61.9 µg/mL)
Cn1c(=O)c2[nH]c(-c3cccnc3)nc2n(C)c1=O | 0.7 | 219 µM (≈ 56.3 µg/mL)
Cc1cc(C)cc(-c2[nH]c3sc(C(C)(C)C(=O)N4C5CCC4CC5)cc3c2CCN2CCN(CC(=O)N(C)C)CC2)c1 | 4.13 | 100 µM (≈ 59 µg/mL)
Cc1ccc(Oc2ccc(Nc3ncnc4cccc(O[C@H](C)C(=O)N5CCOCC5)c34)cc2C)cn1 | 4.14 | 7.6 µM (≈ 3.8 µg/mL)
C[C@@H](Oc1cccc2ncnc(Nc3ccc(OCc4ccccn4)c(Cl)c3)c12)C(=O)N(C)C | 3.67 | 6.2 µM (≈ 2.96 µg/mL)
CCn1c(=O)ccc2cc(COc3cc(F)cc(C4(OC)CCOCC4)c3)ccc21 | 3.89 | 1.7 µM (≈ 0.7 µg/mL)
CCn1c2nc(=O)n(C)c(=O)c-2cc2ccccc21 | 1.1 | 324 µM (≈ 82.6 µg/mL)
Oc1ccc(-c2nc3ccccc3s2)cc1 | 4.1 | 7.9 µM (≈ 1.8 µg/mL)
Cc1cc(C)cc(-c2[nH]c3ccc(C(C)(C)C(=O)N4C5CCC4CC5)cc3c2CCNCCCCc2ccncc2)c1 | 4.3 | 35.5 µM (≈ 20 µg/mL)
NC(=O)COc1ccc(OCCNCC(O)COc2ccccc2)cc1 (stereo not given) | 0.63 | 661 µM (≈ 238 µg/mL)
O=C(c1cc(Cc2n[nH]c(=O)c3ccccc23)ccc1F)N1CCN(C(=O)C2CCOC2)CC1 (stereo not given) | 0.8 | 380 µM (≈ 177 µg/mL)
c1ccc(Nc2ccnc(Nc3ccccc3)n2)cc1 | 4.06 | 15.1 µM (≈ 3.96 µg/mL)
Nc1nc(N)c2nc(-c3ccccc3)c(N)nc2n1 | 1.16 | 97.7 µM (≈ 24.7 µg/mL)
CC1(C)N=C(N)N=C(N)N1c1ccc(Oc2ccc(Cl)cc2)c(Cl)c1 | 0.79 | 372 µM (≈ 141 µg/mL)
CS(=O)(=O)c1ccc(C(=O)Nc2ccc(F)cc2)c[n+]1[O-] | 0.84 | 219 µM (≈ 67.9 µg/mL)
Cc1cc(C)cc(-c2[nH]c3ccc(C(C)(C)C(=O)N4C5CCC4CC5)cc3c2[C@H](C)CNCCc2ccncc2)c1 | 4.35 | 148 µM (≈ 81.2 µg/mL)
COc1cc2ncnc(Nc3cc4ccccc4cn3)c2cc1OC | 3.9 | 0.3 µM (≈ 0.0997 µg/mL)
